Data as given in the supplement of paper PMC11451515.

Test system: P12-Ichikawa
Assay: cell viability relative to DMSO control; higher = less cytotoxic
Conditions: 48 h
In short: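 NOMO1, SEM and P12-Ichikawa leukemia cells spent at least four passages adapting to each medium before use. They were seeded at 500 cells/well (NOMO1, SEM) or 1000 cells/well (P12-Ichikawa) in 5 μl in 1536-well plates and pin-dosed with library compounds in DMSO at 11 threefold steps from 47 μM down to 0.79 nM. After 48 h at 37°C, CellTiter-Glo One luminescence was read. Viability is reported as a percentage of the DMSO wells on each plate, with cell-free wells as background.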

[1] = HPLM + 10% dialyzed FBS, 0.000781 µM
[2] = HPLM + 10% dialyzed FBS, 0.00234 µM
[3] = HPLM + 10% dialyzed FBS, 0.00702 µM
[4] = HPLM + 10% dialyzed FBS, 0.0211 µM
[5] = HPLM + 10% dialyzed FBS, 0.0632 µM
[6] = HPLM + 10% dialyzed FBS, 0.19 µM
[7] = HPLM + 10% dialyzed FBS, 0.569 µM
[8] = HPLM + 10% dialyzed FBS, 1.71 µM
[9] = HPLM + 10% dialyzed FBS, 5.12 µM
[10] = HPLM + 10% dialyzed FBS, 15.4 µM
[11] = HPLM + 10% dialyzed FBS, 46.1 µM
[12] = RPMI 5 mM glucose + 10% FBS, 0.000781 µM
[13] = RPMI 5 mM glucose + 10% FBS, 0.00234 µM
[14] = RPMI 5 mM glucose + 10% FBS, 0.00702 µM
[15] = RPMI 5 mM glucose + 10% FBS, 0.0211 µM
[16] = RPMI 5 mM glucose + 10% FBS, 0.0632 µM
[17] = RPMI 5 mM glucose + 10% FBS, 0.19 µM
[18] = RPMI 5 mM glucose + 10% FBS, 0.569 µM
[19] = RPMI 5 mM glucose + 10% FBS, 1.71 µM
[20] = RPMI 5 mM glucose + 10% FBS, 5.12 µM
[21] = RPMI 5 mM glucose + 10% FBS, 15.4 µM
[22] = RPMI 5 mM glucose + 10% FBS, 46.1 µM
[23] = RPMI 5 mM glucose + 10% dialyzed FBS, 0.000781 µM
[24] = RPMI 5 mM glucose + 10% dialyzed FBS, 0.00234 µM
[25] = RPMI 5 mM glucose + 10% dialyzed FBS, 0.00702 µM
[26] = RPMI 5 mM glucose + 10% dialyzed FBS, 0.0211 µM
[27] = RPMI 5 mM glucose + 10% dialyzed FBS, 0.0632 µM
[28] = RPMI 5 mM glucose + 10% dialyzed FBS, 0.19 µM
[29] = RPMI 5 mM glucose + 10% dialyzed FBS, 0.569 µM
[30] = RPMI 5 mM glucose + 10% dialyzed FBS, 1.71 µM
[31] = RPMI 5 mM glucose + 10% dialyzed FBS, 5.12 µM
[32] = RPMI 5 mM glucose + 10% dialyzed FBS, 15.4 µM
[33] = RPMI 5 mM glucose + 10% dialyzed FBS, 46.1 µM

SMILES	cell viability [1]	cell viability [2]	cell viability [3]	cell viability [4]	cell viability [5]	cell viability [6]	cell viability [7]	cell viability [8]	cell viability [9]	cell viability [10]	cell viability [11]	cell viability [12]	cell viability [13]	cell viability [14]	cell viability [15]	cell viability [16]	cell viability [17]	cell viability [18]	cell viability [19]	cell viability [20]	cell viability [21]	cell viability [22]	cell viability [23]	cell viability [24]	cell viability [25]	cell viability [26]	cell viability [27]	cell viability [28]	cell viability [29]	cell viability [30]	cell viability [31]	cell viability [32]	cell viability [33]
NC/1=N/C(=O)C2=C([NH]C=C2CCC3=CC=C(C=C3)C(=O)N[C@@H](CCC(O)=O)C(O)=O)N1	106%	109%	106%	107%	99.8%	114%	105%	64.4%	35.4%	29.3%	28.2%	102%	113%	108%	107%	110%	108%	96.9%	90%	64.5%	54.9%	47.5%	96.5%	106%	103%	103%	104%	104%	99.1%	88.4%	56.1%	48.1%	44.4%
O=C1C(CCC(O)c2ccc(F)cc2)C(c2ccc(O)cc2)N1c1ccc(F)cc1 (stereo not given)	108%	112%	114%	116%	119%	124%	117%	117%	117%	120%	106%	114%	117%	123%	118%	122%	121%	126%	121%	127%	121%	117%	101%	106%	105%	117%	118%	111%	120%	116%	124%	114%	106%
CCCC[N+]1(C)[C@@H]2CC(OC(=O)[C@H](CO)c3ccccc3)C[C@H]1[C@@H]1O[C@@H]12 (stereo not given in full)	114%	121%	123%	118%	116%	128%	118%	95.2%	104%	103%	110%																						
CCCCC(F)(F)[C@@]1(O)CC[C@H]2[C@@H](CC(=O)[C@@H]2CCCCCCC(=O)O)O1	128%	123%	120%	124%	122%	116%	117%	103%	108%	111%	113%																						
CON(C)C(=O)N1\N=C(/S[C@]1(CCCN)C2=CC=CC=C2)C3=CC(=CC=C3F)F	46%	13.4%	12.4%	12.8%	13%	12.8%	14.2%	12.1%	12.7%	11.2%	13.1%	12%	17.2%	17.5%	16.2%	16.8%	17.7%	16.6%	13.6%	14.2%	12.2%	11.2%	24.8%	28%	21.3%	21.4%	22.5%	24.6%	21%	22.4%	19.1%	18.3%	19.9%
CCNC(=O)c1noc(-c2cc(C(C)C)c(O)cc2O)c1-c1ccc(CN2CCOCC2)cc1	103%	111%	112%	113%	109%	52%	53.9%	50.1%	52%	45.8%	44.2%	111%	116%	115%	117%	97.4%	41%	43.5%	39.6%	47.2%	40.1%	35.8%	96.9%	112%	108%	115%	100%	42.1%	43.8%	41.1%	44.9%	39.4%	37.3%
COc1ccc(-c2cc3c(C)nc(N)nc3n([C@H]3CC[C@H](OCCO)CC3)c2=O)cn1	103%	107%	103%	85.5%	88.3%	72%	66.2%	66%	63.9%	63.5%	48.2%	98.2%	95.3%	85.9%	78%	70.2%	55.1%	51.4%	44.8%	42.7%	37.9%	35.4%	96.6%	98.2%	85.1%	76%	72.3%	58.7%	55.5%	45.9%	39.3%	38.7%	37.4%
Cc1cccc(Nc2nc(N[C@@H]3CCCC[C@@H]3N)ncc2C(N)=O)c1	110%	113%	121%	117%	119%	116%	114%	30.9%	11%	10.8%	14.5%	120%	107%	110%	102%	117%	97.9%	107%	103%	35.1%	13.7%	14.7%	103%	108%	123%	123%	121%	127%	125%	80.5%	24.3%	23.3%	27.5%
CN(C)Cc1cccc(N/C(=C2\C(=O)Nc3cc(C(=O)N(C)C)ccc32)c2ccccc2)c1	95.7%	105%	110%	101%	119%	114%	111%	115%	103%	93.2%	42.3%	90.7%	114%	108%	109%	114%	111%	113%	106%	96%	90.3%	65%	100%	111%	111%	117%	120%	111%	114%	118%	103%	98.2%	64.4%
COc1ccccc1N1CCN(CC(O)COc2cccc3ccccc23)CC1 (stereo not given)	119%	123%	127%	117%	125%	132%	116%	121%	120%	106%	109%												121%	123%	126%	117%	127%	125%	115%	109%	107%	90.4%	82.4%
CC(C)N(CCCNC(=O)Nc1ccc(C(C)(C)C)cc1)C[C@H]1O[C@@H](n2cc(Br)c3c(N)ncnc32)[C@H](O)[C@@H]1O	85.8%	89.9%	92.2%	93%	97%	94%	97.9%	88%	81.4%	77.8%	13.8%	87.3%	91.6%	90.8%	86.1%	87.1%	87.2%	91.5%	85.8%	87.1%	74%	47.2%	83.5%	90%	89.6%	88.3%	85.4%	88.6%	91.8%	80.1%	85.4%	68.9%	39.2%
COCCNCCCn1c(C(=O)CF)c(-c2ccc(C)cc2)c2c(N)ncnc21	108%	95.8%	104%	102%	111%	103%	102%	95.1%	85.3%	94.5%	87.2%	118%	100%	108%	103%	107%	104%	101%	103%	104%	96.7%	91.7%	103%	96.7%	116%	98%	106%	101%	105%	89.8%	94.7%	83.7%	72.2%
COc1cc([S+](C)(=O)[O-])ccc1Nc1nc2ccc(-c3ccc(NC(=O)[C@H](C)c4ccc(F)cc4)cc3)cn2n1	109%	106%	108%	110%	120%	117%	120%	49%	56.4%	61.4%	65%	103%	116%	118%	108%	113%	117%	114%	37.2%	55.1%	56.4%	57.1%											
CCN(CCO)CCCC(C)Nc1ccnc2cc(Cl)ccc12 (stereo not given)	99.5%	114%	114%	111%	110%	105%	75.6%	112%	57.5%	14.7%	9.45%	102%	110%	110%	103%	108%	106%	74.6%	105%	66.2%	27.3%	10.7%	102%	108%	106%	117%	112%	103%	90.7%	102%	3.75%	56.4%	15.4%
Cc1nc(C(=O)NCC(=O)O)c(O)c2ccc(Oc3ccccc3)cc12	111%	97.3%	107%	105%	113%	91.4%	98.4%	99.5%	94.8%	102%	98.7%	107%	111%	115%	105%	110%	102%	110%	101%	103%	99.2%	85.5%	99.4%	101%	102%	104%	101%	98.8%	101%	94.8%	96.9%	93.6%	77%
COc1cc2nc(N3CCN(C(=O)c4ccco4)CC3)nc(N)c2cc1OC	88.4%	91.4%	95%	102%	99%	93.2%	110%	84.7%	97.1%	55.1%	4.81%	84.1%	88.8%	97.8%	91.6%	98.2%	103%	87%	95%	91.2%	98.9%	5.43%	77.1%	74.4%	91%	80.1%	90.7%	85.3%	93.5%	89.1%	90.1%	95.1%	5.58%
CC[C@@H](C)[C@H](NC(=O)[C@H](CC1CCCCC1)NC(=O)c1ccno1)C(=O)N1CCC2(CCc3ccccc32)CC1	94%	89.4%	92.7%	88.9%	95%	94.1%	75.8%	80.8%	89.2%	78.9%	83.3%	79%	81.5%	101%	88.7%	89.8%	85.9%	64.5%	71.9%	99.8%	70.1%	74.6%	84.3%	89.3%	83.2%	81.4%	77.1%	82.2%	79.6%	82%	84.6%	76%	77%
